# Target: T1, hSTING (Homo sapiens, UniProt Q86WV6, G230A/H232R/R293Q/R71H)
# T1 construct: host or cells: THP1-Dual KO-IFNAR2 cells
# Experiment: STING reporter assay: THP1-Dual KO-IFNAR2 cells stimulated with 2′3′cGAMP, luciferase reporter activity
# Type: cell-based
# Details: 15 μM 2′3′cGAMP transfected with Lipofectamine 2000, 24 h, luciferase reporter (QUANTI-Luc)
# Description: STING pathway activation by the compounds described herein was measured using THP1-Dual™ cells (KO-IFNAR2).
# THP1-Dual™ KO-IFNAR2 Cells (obtained from invivogen) were maintained in RPMI, 10% FCS, 5 ml P/S, 2 mM L-glut, 10 mM Hepes, and 1 mM sodium pyruvate. Compounds were spotted in empty 384 well tissue culture plates (Greiner 781182) by Echo for a final concentration of 0.0017-100 μM. Cells were plated into the TC plates at 40 μL per well, 2×10E6 cells/mL. For activation with STING ligand, 2′3′cGAMP (MW 718.38, obtained from Invivogen), was prepared in Optimem media.
# The following solutions were prepared for each 1×384 plate: • Solution A: 2 mL Optimem with one of the following stimuli: • 60 μL of 10 mM 2′3′cGAMP→150 μM stock • Solution B: 2 mL Optimem with 60 μL Lipofectamine 2000→Incubate 5 min at RT
# 2 mL of solution A and 2 ml Solution B was mixed and incubated for 20 min at room temperature (RT). 20 μL of transfection solution (A+B) was added on top of the plated cells, with a final 2′3′cGAMP concentration of 15 μM. The plates were then centrifuged immediately at 340 g for 1 minute, after which they were incubated at 37° C., 5% CO2, >98% humidity for 24 h. Luciferase reporter activity was then measured. EC50 values were calculated by using standard methods known in the art.
# Luciferase reporter assay: 10 μL of supernatant from the assay was transferred to white 384-plate with flat bottom and squared wells. One pouch of QUANTI-Luc™ Plus was dissolved in 25 mL of water. 100 μL of QLC Stabilizer per 25 mL of QUANTI-Luc™Plus solution was added. 50 μL of QUANTI-Luc™ Plus/QLC solution per well was then added. Luminescence was measured on a Platereader (e.g., Spectramax I3X (Molecular Devices GF3637001)).
# Luciferase reporter activity was then measured. EC50 values were calculated by using standard methods known in the art.
# T1 sequence (Q86WV6 whole entry R71H/G230A/H232R/R293Q): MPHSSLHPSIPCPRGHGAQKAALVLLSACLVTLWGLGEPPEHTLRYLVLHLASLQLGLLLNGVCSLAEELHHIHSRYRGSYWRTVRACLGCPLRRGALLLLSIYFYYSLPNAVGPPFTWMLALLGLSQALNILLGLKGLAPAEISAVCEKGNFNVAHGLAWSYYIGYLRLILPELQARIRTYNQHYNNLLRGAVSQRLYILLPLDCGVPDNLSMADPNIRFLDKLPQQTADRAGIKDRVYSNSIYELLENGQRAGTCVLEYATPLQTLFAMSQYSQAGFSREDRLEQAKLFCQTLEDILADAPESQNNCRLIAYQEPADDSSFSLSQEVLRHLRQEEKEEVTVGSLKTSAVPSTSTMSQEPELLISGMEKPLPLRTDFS
row,SMILES,EC50
1,"O=C(Nc1c[nH]c2cc(F)c(F)cc12)c1cn(Cc2ccc(C(F)(F)F)cc2)nn1 [Compound 105, N-(5,6-difluoro-1H-indol-3-yl)-1-(4-(trifluoromethyl)benzyl)-1H-1,2,3-triazole-4-carboxamide]",200 to 1000 nM
2,"Cc1cc(C(=O)Nc2c[nH]c3cc(F)c(F)cc23)nn1C1CCCCC1 [Compound 140, 1-cyclohexyl-N-(5,6-difluoro-1H-indol-3-yl)-5-methyl-1H-pyrazole-3-carboxamide]",5000 to 100000 nM
3,"O=C(Nc1c[nH]c2cc(F)c(F)cc12)c1cc(-c2cccnc2)[nH]n1 [Compound 119, N-(5,6-difluoro-1H-indol-3-yl)-5-(pyridin-3-yl)-1H-pyrazole-3-carboxamide]",5000 to 100000 nM
4,"O=C(Nc1c[nH]c2cc(F)c(F)cc12)c1cc(Cc2ccc(C(F)(F)F)cc2)on1 [Compound 153, N-(5,6-difluoro-1H-indol-3-yl)-5-(4-(trifluoromethyl)benzyl)isoxazole-3-carboxamide]",200 to 1000 nM
5,"O=C(Nc1c[nH]c2cc(F)c(F)cc12)c1cc(-c2ccc(Cl)cc2)on1 [Compound 167, 5-(4-chlorophenyl)-N-(5,6-difluoro-1H-indol-3-yl)isoxazole-3-carboxamide]",200 to 1000 nM

# The remaining lines, values ahead:
row,EC50,SMILES
1,200 to 1000 nM,"O=C(Nc1c[nH]c2ccccc12)c1ncc(-c2ccc(C(F)(F)F)cc2)[nH]1 [Compound 129, N-(1H-indol-3-yl)-5-(4-(trifluoromethyl)phenyl)-1H-imidazole-2-carboxamide]"
2,200 to 1000 nM,"CC(C)n1cc(-c2ccc3[nH]cc(NC(=O)c4cn(Cc5ccc(C(F)(F)F)cc5)cn4)c3c2)cn1 [Compound 138, N-(5-(1-isopropyl-1H-pyrazol-4-yl)-1H-indol-3-yl)-1-(4-(trifluoromethyl)benzyl)-1H-imidazole-4-carboxamide]"
3,200 to 1000 nM,"Cn1nc(C(=O)Nc2c[nH]c3cc(F)c(F)cc23)cc1Cc1ccc(C(F)(F)F)cc1 [Compound 113, N-(5,6-difluoro-1H-indol-3-yl)-1-methyl-5-(4-(trifluoromethyl)benzyl)-1H-pyrazole-3-carboxamide]"
4,200 to 1000 nM,"CC(C)n1cc(-c2ccc3[nH]cc(NC(=O)c4ccn(Cc5ccc(C(F)(F)F)cc5)n4)c3c2)cn1 [Compound 133, N-(5-(1-isopropyl-1H-pyrazol-4-yl)-1H-indol-3-yl)-1-(4-(trifluoromethyl)benzyl)-1H-pyrazole-3-carboxamide]"
5,200 to 1000 nM,"O=C(Nc1c[nH]c2ccc(Cl)cc12)c1cn(-c2cnc(NCC(F)(F)F)c(F)c2)nn1 [Compound 158, N-(5-chloro-1H-indol-3-yl)-1-(5-fluoro-6-((2,2,2-trifluoroethyl)amino)pyridin-3-yl)-1H-1,2,3-triazole-4-carboxamide]"

# — US20230271941A1, “COMPOUNDS AND COMPOSITIONS FOR TREATING CONDITIONS ASSOCIATED WITH STING ACTIVITY” (IFM Due, Inc., priority 2020, published 2023)
